Earlier results as cited in patent US20150150473A1, “Drug-Enhanced Neurofeedback” (McLean Hospital Corporation, priority 2008, published 2015).

Conditions: in vivo

In the case of `N[C@@H]1CON=C1O` [DCS, d-cycloserine], the half-life is given as “approximately 10 hours”.
